By IC50 is commonly meant the concentration that inhibits the measured activity by half. Lower therefore signals greater potency in that assay.

In this test the target is T1, human PRMT3 (Homo sapiens, UniProt O60678).
T1 construct: GST-tagged PRMT3; made in house; host or cells: E. coli BL21(DE3) Gold (pGEX-KG)
T1 sequence (O60678 with tags, fused parts or gaps): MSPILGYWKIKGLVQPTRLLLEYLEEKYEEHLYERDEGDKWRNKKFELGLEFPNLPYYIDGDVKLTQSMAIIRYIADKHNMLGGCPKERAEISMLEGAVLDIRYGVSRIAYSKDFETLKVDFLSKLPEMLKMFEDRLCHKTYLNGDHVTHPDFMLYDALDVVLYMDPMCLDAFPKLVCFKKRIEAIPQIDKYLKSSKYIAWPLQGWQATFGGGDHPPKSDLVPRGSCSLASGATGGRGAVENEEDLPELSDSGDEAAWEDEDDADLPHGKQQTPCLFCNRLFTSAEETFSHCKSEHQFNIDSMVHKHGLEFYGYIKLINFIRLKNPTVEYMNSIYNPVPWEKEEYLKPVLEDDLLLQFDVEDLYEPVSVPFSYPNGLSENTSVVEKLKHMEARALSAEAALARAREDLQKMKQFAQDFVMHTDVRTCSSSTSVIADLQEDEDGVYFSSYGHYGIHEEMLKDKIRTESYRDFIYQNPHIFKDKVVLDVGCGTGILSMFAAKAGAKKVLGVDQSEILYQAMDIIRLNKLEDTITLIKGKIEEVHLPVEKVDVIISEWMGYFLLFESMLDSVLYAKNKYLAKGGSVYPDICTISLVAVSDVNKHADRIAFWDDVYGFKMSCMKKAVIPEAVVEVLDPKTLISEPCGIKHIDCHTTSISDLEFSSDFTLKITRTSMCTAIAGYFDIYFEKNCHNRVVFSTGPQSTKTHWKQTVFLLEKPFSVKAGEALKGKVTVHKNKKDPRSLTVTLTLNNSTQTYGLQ
The test can be described thus: PRMT3 Biochemical Assay. As to conditions: peptide substrate, 3H-SAM Flashplate assay. From the text: S-adenosylmethionine (SAM), S-adenosylhomocysteine (SAH), bicine, Tween20, dimethylsulfoxide (DMSO), bovine skin gelatin (BSG), isopropyl-P3-D-thiogalactopyranoside (IPTG), and Tris(2-carboxyethyl)phosphine hydrochloride solution (TCEP) were purchased from Sigma-Aldrich at the highest level of purity possible. ^3H-SAM was purchase from American Radiolabeled Chemicals with a specific activity of 80 Ci/mmol. 384-well streptavidin Flashplates were purchased from PerkinElmer.
Peptide containing the classic RMT substrate motif was synthesized with an N-terminal linker-affinity tag motif and a C-terminal amide cap by 21st Century Biochemicals. The peptide was purified by high-performance liquid chromatography (HPLC) to greater than 95% purity and confirmed by liquid chromatography mass spectrometry (LC-MS). The sequence was Biot-Ahx-[…]-amide (SEQ ID NO.:11).
Full-length human PRMT3 (NM_005788.3) isoform 1 transcript clone was amplified from an HEK 293 cDNA library and subcloned into pGEX-KG (GE Life Sciences). The resulting construct encodes an N-terminal GST tag and a thrombin cleavage sequence ([…] […] […] […]) (SEQ ID NO.: 12) fused directly to Cys 2 of PRMT3.
E. coli (BL21(DE3) Gold, Stratagene) made competent by the CaCl2 method were transformed with the PRMT3 construct and ampicillin selection. Protein over-expression was accomplished by growing the PRMT3 expressing E. coli clone and inducing expression with 0.3 mM IPTG at 16° C. The culture was grown for 12 hours, harvested by centrifugation, and stored at −80° C. for purification.
GST-tagged PRMT3 eluted with 25-400 mM phosphate in buffer C. Protein was concentrated and buffer was exchanged to 20 mM Tris, 150 mM NaCl, 5% glycerol, 5 mM β-mercaptoethanol, pH7.8 by ultrafiltration. The purity of recovered protein was 70%.
General Procedure for PRMT3 Enzyme Assays on Peptide Substrates.
The assays were all performed in a buffer consisting of 20 mM Bicine (pH=7.6), 1 mM TCEP, 0.005% BSG, and 0.002% Tween 20, prepared on the day of use. Compounds in 100% DMSO (1 ul) were spotted into a polypropylene 384-well V-bottom plates (Greiner) using a Platemate Plus outfitted with a 384-channel head (Thermo Scientific). DMSO (1 ul) was added to Columns 11, 12, 23, 24, rows A-H for the maximum signal control and 1 ul of SAH, a known product and inhibitor of PRMT3, was added to columns 11, 12, 23, 24, rows I-P for the minimum signal control. A cocktail (40 ul) containing the PRMT3 enzyme was added by Multidrop Combi (Thermo-Fisher). The compounds were allowed to incubate with PRMT3 for 30 min at room temperature, then a cocktail (10 ul) containing SAM and peptide was added to initiate the reaction (final volume=51 ul). The final concentrations of the components were as follows: PRMT3 was 0.5 nM, ^3H-SAM was 100 nM, non-radiolabeled SAM was 1.8 uM, peptide was 330 nM, SAH in the minimum signal control wells was 1 mM, and the DMSO concentration was 2%. The assays were stopped by the addition of potassium chloride (10 ul) to a final concentration of 100 mM. 50 ul of the reaction in the 384-well polypropylene plate was then transferred to a 384-well Flashplate and the biotinylated peptides were allowed to bind to the streptavidin surface for at least 1 hour before being washed once with 0.1% Tween20 in a Biotek ELx405 plate washer. The plates were then read in a PerkinElmer TopCount plate reader to measure the quantity of ^3H-labeled peptide bound to the Flashplate surface, measured as disintegrations per minute (dpm) or alternatively, referred to as counts per minute (cpm).
Where dpm=disintegrations per minute, cmpd=signal in assay well, and min and max are the respective minimum and maximum signal controls.
Where top and bottom are the normally allowed to float, but may be fixed at 100 or 0 respectively in a 3-parameter fit. The Hill Coefficient normally allowed to float but may also be fixed at 1 in a 3-parameter fit. […]
Regarding `CNCCN(C)Cc1c[nH]nc1-c1cccnc1` [Compound 1], the IC50 was no less than 10 µM.

For `CNCCN(C)Cc1c[nH]nc1-c1ccc(O)nc1` [Compound 2], the IC50 is no less than 10 µM. Then `CNCCN(C)Cc1c[nH]nc1-c1ccc(N)nc1` [Compound 3], with no less than 10 µM; and `CN(CCN)Cc1c[nH]nc1-c1cncc(S(C)(=O)=O)c1` [Compound 4], with no less than 10 µM; and `COc1ccc(-c2n[nH]cc2CN(C)CCN)cn1` [Compound 5], with no less than 10 µM.

In turn, `Cc1cncc(-c2n[nH]cc2CN(C)CCN)c1` [Compound 6] had an IC50 of no less than 10 µM.

The compound `CN(CCN)Cc1c[nH]nc1-c1cncc(F)c1` [Compound 7] had an IC50 of 3.01 to 10 µM.

In turn, `CN(CCN)Cc1c[nH]nc1-c1cccnc1` [Compound 8] had a concentration for half-maximal inhibition (IC50) of no less than 10 µM. `CN(CCN)Cc1c[nH]nc1-c1ccncc1` [Compound 9] returned an IC50 of 1.01 to 3 µM. As for `Cc1cc(-c2n[nH]cc2CN(C)CCN)cnc1Cl` [Compound 10], the IC50 was 1.01 to 3 µM.

Consider `COc1cc(-c2n[nH]cc2CN(C)CCN)ccn1` [Compound 11], for which the IC50 was no less than 10 µM. Then `COc1cc(-c2n[nH]cc2CN(C)CCN)c(Cl)cn1` [Compound 12], with no less than 10 µM; and `CN(CCN)Cc1c[nH]nc1-c1ccc(C(F)(F)F)nc1` [Compound 13, N^1-methyl-N^1-((3-(6-(trifluoromethyl)pyridin-3-yl)-1H-pyrazol-4-yl)methyl)ethane-1,2-diamine], with 3.01 to 10 µM; and `COc1ncc(Cl)cc1-c1n[nH]cc1CN(C)CCN` [Compound 14], with no less than 10 µM.

`COc1ncccc1-c1n[nH]cc1CN(C)CCN` [Compound 15] had an IC50 of no less than 10 µM.

As for `COc1ccncc1-c1n[nH]cc1CN(C)CCN` [Compound 16], the IC50 is no less than 10 µM. Then `Cc1ccncc1-c1n[nH]cc1CN(C)CCN` [Compound 17], with no less than 10 µM; and `CN(CCN)Cc1c[nH]nc1-c1cncc(C#N)c1` [Compound 18], with no less than 10 µM; and `CN(CCN)Cc1c[nH]nc1-c1cncc(Cl)c1` [Compound 19], with 1.01 to 3 µM.

These data come from patent US9440950B2, “Arginine methyltransferase inhibitors and uses thereof” (Epizyme, Inc., priority 2013, dated 2016).
